Our source for the Km and Vmax values is PMC5352556 (Journal of chemical neuroanatomy, 2016).

Holding throughout (assay type): cell-based
For experiment [1], the system named is rat Pmat (rPmat). Put plainly: Concentration dependence of rPmat-mediated substrate uptake in MDCK/rPmat cells. As to conditions: rPmat-mediated uptake, MDCK/rPmat minus mock, 3 min, 37 °C, pH 7.4.
Experiment [2] has as its target T1, human PMAT (hPMAT) (Homo sapiens, UniProt Q7RTT9).
T1 sequence (Q7RTT9 1-530): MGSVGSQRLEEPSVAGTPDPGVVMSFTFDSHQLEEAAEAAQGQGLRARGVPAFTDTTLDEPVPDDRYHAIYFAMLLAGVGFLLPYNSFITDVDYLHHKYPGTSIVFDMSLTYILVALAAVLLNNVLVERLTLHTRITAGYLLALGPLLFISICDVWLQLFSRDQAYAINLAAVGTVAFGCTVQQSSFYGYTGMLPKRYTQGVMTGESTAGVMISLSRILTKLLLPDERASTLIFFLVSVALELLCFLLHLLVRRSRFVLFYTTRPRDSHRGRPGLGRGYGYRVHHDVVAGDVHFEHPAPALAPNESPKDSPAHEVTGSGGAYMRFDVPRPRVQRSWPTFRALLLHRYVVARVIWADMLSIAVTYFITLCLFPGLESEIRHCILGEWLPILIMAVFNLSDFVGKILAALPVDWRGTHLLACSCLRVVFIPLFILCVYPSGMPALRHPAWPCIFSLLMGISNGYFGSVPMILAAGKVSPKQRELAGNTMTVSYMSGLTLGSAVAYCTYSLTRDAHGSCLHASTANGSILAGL
Briefly: Concentration dependence of hPMAT-mediated substrate uptake in MDCK/hPMAT cells. As to conditions: hPMAT-mediated uptake, MDCK/hPMAT minus mock, 3 min, 37 °C, pH 7.4.

The target in experiment [3] is T2, mouse Pmat (mPmat) (Mus musculus, UniProt Q8R139).
T2 sequence (Q8R139 1-528): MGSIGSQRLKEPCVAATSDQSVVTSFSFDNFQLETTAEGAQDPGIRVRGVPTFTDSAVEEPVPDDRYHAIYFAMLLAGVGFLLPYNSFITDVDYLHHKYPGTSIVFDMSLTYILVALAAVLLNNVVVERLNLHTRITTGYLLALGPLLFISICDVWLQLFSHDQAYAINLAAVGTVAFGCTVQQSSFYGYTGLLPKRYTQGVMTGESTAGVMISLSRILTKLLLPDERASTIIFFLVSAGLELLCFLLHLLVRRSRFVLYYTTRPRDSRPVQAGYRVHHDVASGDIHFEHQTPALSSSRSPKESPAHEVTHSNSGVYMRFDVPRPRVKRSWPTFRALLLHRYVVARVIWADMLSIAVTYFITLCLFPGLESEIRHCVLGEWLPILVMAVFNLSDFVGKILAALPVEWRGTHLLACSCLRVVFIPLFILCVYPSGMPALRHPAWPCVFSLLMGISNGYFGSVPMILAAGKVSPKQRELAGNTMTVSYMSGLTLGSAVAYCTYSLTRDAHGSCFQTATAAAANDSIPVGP
As to conditions: mPmat-mediated uptake, Flp293/mPmat minus mock, 2 min, 37 °C, pH 7.4.

The structures appear in SMILES notation. Where a name gives a salt, the structure may show the parent alone.

`[3H]c1c([3H])c(CCN)c([3H])c(O)c1O` [Dopamine, 3,4-dihydroxy-[2,5,6-^3H]phenylethylamine]: the Michaelis constant (Km) (in general, the substrate concentration at which the rate is half of its maximum) in experiment [1] is 271 ± 50 µM; in experiment [2] it was 201 ± 34 µM. Further, the results for the Vmax in experiment [1], in experiment [1] (listed as dopamine) and in experiment [2] were 0.750 ± 0.049 nmol/min/mg protein, 0.750 ± 0.049 nmol/min/mg protein and 1.43 ± 0.08 nmol/min/mg protein, respectively.

As to `C[n+]1ccc(-c2ccccc2)cc1` [MPP^+, 1-methyl-4-phenylpyridinium], the Km in experiment [1] came out at 70.2 ± 12.3 µM; in experiment [2], 33.7 ± 6 µM; in experiment [3], 49.5 ± 0.1 µM. In addition, the Vmax in experiment [1] amounted to 0.210 ± 0.011 nmol/min/mg protein; in experiment [2], 0.490 ± 0.190 nmol/min/mg protein; in experiment [3], 1.59 ± 0.068 nmol/min/mg protein.

Consider `NCCc1c[nH]c2ccc(O)cc12` [Serotonin, 5-hydroxy-[1,2-^3H]tryptamine creatinine sulfate], for which, in experiment [1], the Km came to 82.9 ± 21.2 µM and the Vmax amounted to 1.26 ± 0.12 nmol/min/mg protein. Also, in experiment [2], the Michaelis constant (Km) was determined as 116 ± 27 µM.
